The results in this text go back to patent US9376380B2 (University of Pittsburgh—Of the Commonwealth System of …, priority 2011, dated 2016).

The target of data set [1] is T1, CB1 receptor (Homo sapiens, UniProt P21554).
T1 construct: host or cells: cell membrane preparations
Description: [3H]CP-55,940 radioligand competition binding, CB1. The conditions noted are these: [3H]CP-55,940 displacement; read-out: Ki (CB1).
Description: Briefly, the bioassay is carried out using the Perkin Elmer 96-well Top Counter. […] The procedure is as follows.
In competition binding experiments, the tested compound dilutions are carried out in duplicate in TME buffer (25 mM Tris, 5 mM MgCl2, 1 mM EDTA) containing 0.1% (w/v) fatty acid free bovine serum albumin (BSA), pH 7.4. […] TME buffer and cell membrane preparations expressing CB receptors (5 μg per well) are added to a final volume of 200 μL. […] After the binding suspensions are incubated at 30° C. for 1 hr, the reaction is terminated by rapid filtration through microfiltration plates (Unifilter GF/B filterplate, PerkinElmer), followed by 5 washes with ice cold TME buffer containing 0.1% BSA on a Packard Filtermate Harvester (PerkinElmer). The plates are then dried overnight and 30 μl MicroScint 0 scintillation cocktail is added to each well of the dried filter plates. The bound radioactivity is then counted using a Perkin Elmer 96-well TopCounter. […] This assay is used for determination of the binding affinity parameters (Ki) of ligand-receptor interactions for the CB receptor.

In data set [2] the test system is RAW 264.7 cells. Description: RANKL-induced osteoclast differentiation on RAW 264.7 cells (TRAP). Format: cell-based, mouse. The conditions noted are these: for inhibition activity at low dose / inhibition at 1 µM: 1 μM; for inhibition at 1 µM / inhibition at 0.1 µM / inhibition at 10 µM: Mus musculus, RAW264.7, read-out: inhibition rate of osteoclast formation; for inhibition of RANKL-induced osteoclastogenesis, dose dependence: RANKL 15 ng/mL, 5 days. The text has this:
FIG. 5. Anti-osteoclastogenesis activity of exemplary compounds. […] The bar indicates the SD. (B) Photographs of cells in the test of compound 93 (original magnification 100×).

Data set [3] deals with peripheral blood mononuclear cell (PBMC). Description: Cytotoxicity on normal human PBMC, trypan blue exclusion. The class given is cell-based. The settings on record: 3 days. An excerpt: Peripheral blood was drawn in a heparinized syringe from healthy fasting volunteers who had been without medication for at least 2 weeks. The peripheral blood mononuclear cell (PBMC) fraction was obtained by gradient centrifugation over Ficoll-Hypaque (Amersham), as described by Feng, R. et al. S. KD5170, a novel mercaptoketone-based histone deacetylase inhibitor, exerts antimyeloma effects by DNA damage and mitochondrial signaling, Mol. Cancer Ther. 2008, 7, 1494-1505. […] The compounds in a stock solution (50 mMin DMSO) were diluted with the culture medium to application conditions and further used for the treatment of PBMC for 3 days. The final DMSO concentrations are always 0.02%. After treatment for 72 h, cell viability was determined using trypan blue exclusion assay. These human cell studies conformed to the guidelines of the Institutional Review Board of the University of Pittsburgh, Pa.

Data set [4] addresses CB2 receptor (Homo sapiens, UniProt P34972). Description: [3H]CP-55,940 radioligand competition binding, CB2. Also on record: host or cells: cell membrane preparations. The conditions noted are these: for SI: selectivity index for CB2: Ki(CB1)/Ki(CB2) ratio.
Data set [5] has as its system Human MM cell U266. Description: [3H]-thymidine uptake cell proliferation assay, U266. Format: cell-based. The conditions noted are these: U266, 0-10 μmol/L, 48 h. The protocol: FIG. 2. Inhibitory effects of CB2 ligands on human MM cell growth. Human MM cell U266 (3×10^4 cells per well in 96-well plate) was exposed to the known CB2 ligands (A) or PAM (B) at indicated concentrations (0-10 μmol/L) for 48 h. Cell proliferation was measured by [^3H]-thymidine uptake assay as described in Materials and Methods. (C) U266 cells (3×10^4 per well in 96-well plate) were treated with PAM at indicated doses for 48 h. Cell viability and the viable cell number per well were determined using trypan blue exclusion assay. (D) Human chemoresistant myeloma cell lines MM.1R (dexamethasone), RPMI-8226/LR5 (melphalan) and their respective parent cells MM.1S and RPMI-8226 were exposed to PAM for 48 h. Cell proliferation was measured by ^3H-thymidine incorporation. The data presented are the mean±SD of at least 3 independent measurements. (E) [S^35]-GTPγS binding assay of different ligands on human CB2 receptor expressed in CHO cells.
A tritiated thymidine incorporation assay was carried out to investigate the effects of CB2 ligands on cell proliferation. U266, RPMI-8226 (3×10^4 cells/well), MM.1 S cells (6×10^4 cells/well), and their resistant sublines were cultured in 96-well culture plates with or without drugs for 48 hours. DNA synthesis was measured by ^3H-thymidine uptake as described previously.

Setting [6] is: [3H]CP-55,940 displacement, read-out: Ki (CB2).

Like-named read-outs stand apart in the source and are kept apart here.

T1 sequence (P21554 whole entry): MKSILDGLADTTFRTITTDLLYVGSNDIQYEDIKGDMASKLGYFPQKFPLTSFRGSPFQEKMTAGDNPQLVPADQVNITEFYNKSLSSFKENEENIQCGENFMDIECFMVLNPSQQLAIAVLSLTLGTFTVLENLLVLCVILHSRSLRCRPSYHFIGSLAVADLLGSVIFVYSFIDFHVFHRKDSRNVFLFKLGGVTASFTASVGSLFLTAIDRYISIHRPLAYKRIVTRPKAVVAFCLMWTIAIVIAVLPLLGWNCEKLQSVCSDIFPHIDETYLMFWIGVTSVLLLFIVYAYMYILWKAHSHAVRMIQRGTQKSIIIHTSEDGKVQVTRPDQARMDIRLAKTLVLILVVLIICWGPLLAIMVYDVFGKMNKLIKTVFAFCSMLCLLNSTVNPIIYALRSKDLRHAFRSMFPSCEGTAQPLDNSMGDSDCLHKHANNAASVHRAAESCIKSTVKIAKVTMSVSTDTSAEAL
Sequence of CB2 receptor (P34972 whole entry): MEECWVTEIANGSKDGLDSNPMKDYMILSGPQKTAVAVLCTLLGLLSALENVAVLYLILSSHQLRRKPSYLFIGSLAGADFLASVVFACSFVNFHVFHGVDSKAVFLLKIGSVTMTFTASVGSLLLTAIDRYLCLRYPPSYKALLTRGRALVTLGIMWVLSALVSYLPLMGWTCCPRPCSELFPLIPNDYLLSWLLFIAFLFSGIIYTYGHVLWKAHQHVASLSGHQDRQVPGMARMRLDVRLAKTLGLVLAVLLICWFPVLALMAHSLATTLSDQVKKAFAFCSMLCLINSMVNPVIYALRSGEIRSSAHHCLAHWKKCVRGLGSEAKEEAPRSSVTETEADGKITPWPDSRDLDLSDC

The term Ki denotes the equilibrium dissociation constant of an inhibitor or competing ligand from its target. One may read the inhibition as the relative decrease from the control value, in per cent. For `CCN(CC)c1ccc(CN(c2ccc(Cl)cc2)S(=O)(=O)c2ccc(OC)cc2)cc1` [Compound 84, N-(4-Chlorophenyl)-N-(4-(diethylamino)benzyl)-4-methoxybenzenesulfonamide], the figures for the Ki in data set [1] and in data set [4] (setting [6]) were more than 20000 nM and 14 nM, respectively. Besides, the “inhibition activity at low dose” value in data set [2] is “good inhibition activity”. Besides, in data set [2], the inhibition at 1 µM came to 97%. The “inhibition of RANKL-induced osteoclastogenesis, dose dependence” value (“inhibition … dose dependence” for short) in data set [2] is “dose-dependent manner”. The “effect on cell viability” value in data set [3] (5 μM) is on record as “only slight effect on cell viability”. The “cell viability vs vehicle control” value is “not significantly affected” in data set [3] (1.25 and 2.5 μM); “not significantly affected” in data set [3]. Moreover, the “effects on cell viability” value in data set [3] (5 and 10 μM) was “only some effects on cell viability”. The “SI: selectivity index for CB2” value in data set [4] is >1,428.
With `CC(C)c1ccc(C(NC(=O)Cc2ccccc2)NC(=O)Cc2ccccc2)cc1` [Compound 9, N,N′-((4-isopropylphenyl)methylene)bis(2-phenylacetamide)], the “cell viability vs vehicle control” value in data set [3] is “not significantly affected”.
On to `CCN(CC)c1ccc(CN(c2ccc(C)cc2)S(=O)(=O)c2ccc(OC)cc2)cc1` [Compound 93, N-(4-(Diethylamino)benzyl)-4-methoxy-N-(p-tolyl)benzenesulfonamide], for which the Ki in data set [1] worked out at 1300 nM. In data set [2], the “inhibition activity at low dose” value is “good inhibition activity”, the inhibition at 0.1 µM came to 46%, the inhibition at 1 µM turned out to be 97% and the inhibition at 10 µM was 100%. In data set [2], the “inhibition … dose dependence” value is reported as “dose-dependent manner”. Moreover, the “cell viability vs vehicle control” value in data set [3] (1.25 and 2.5 μM) is “not significantly affected”. In addition, the “effects on cell viability” value in data set [3] (5 and 10 μM) was “only some effects on cell viability”. In addition, the “cell viability vs vehicle control” value in data set [3] is given as “not significantly affected”. Further, the “SI: selectivity index for CB2” value in data set [4] turned out to be 2594. The inhibition constant Ki in data set [4] (setting [6]) was found to be 0.5 nM.
Turning to `CCN(CC)c1ccc(CN(C23CC4CC(CC(C4)C2)C3)S(=O)(=O)c2cccc(C)c2)cc1` [Compound 61, N-((3s,5s,7s)-Adamantan-1-yl)-N-(4-(diethylamino)benzyl)-3-methylbenzenesulfonamide], the inhibition constant Ki in data set [1] was determined as 8220 nM; in data set [4], 19 nM. The “inhibition … dose dependence” value in data set [2] is recorded as “dose-dependent manner”.
Turning to `CCN(CC)c1ccc(C(NC(=O)Cc2ccccc2)NC(=O)Cc2ccccc2)cc1` [Compound 17, N,N′-((4-(diethylamino)phenyl)methylene)bis(2-phenylacetamide)], in data set [2], the inhibition at 0.1 µM came to 72%, the inhibition at 1 µM turned out to be 79% and the inhibition at 10 µM was 84%. For the same compound, the cytotoxic effects result in data set [3] (1 μM) is listed as “did not show any cytotoxic effects”. Moreover, the “effects on cell viability” value in data set [3] (10 μM) is recorded as “only slight effects on cell viability”. In data set [3], the “cell viability vs vehicle control” value is recorded as “not significantly affected”. Also, the “SI: selectivity index for CB2” value in data set [4] is listed as more than 313. In addition, the Ki in data set [4] (setting [6]) came out at 64 nM.
As for `COc1ccc(C(=O)c2c(C)n(CCN3CCOCC3)c3cc(I)ccc23)cc1` [AM630], in data set [5], the “inhibition of DNA synthesis in MM cells” value was “dose dependent inhibition”.
Same read-out and setting: the same measure for `CCCCCCC(C)(C)c1cc(OC)c([C@@H]2C=C(CO)[C@@H]3C[C@H]2C3(C)C)c(OC)c1` [Hu308]: “no effect”.
With `CCN(CC)c1ccc(CN(C(=O)C2CCCCC2)C23CC4CC(CC(C4)C2)C3)cc1` [Compound 63, N-((3s,5s,7s)-Adamantan-1-yl)-N-(4-(diethylamino)benzyl)cyclohexanecarboxamide], in data set [1], the Ki is more than 20000 nM. Moreover, in data set [4], the Ki was 35 nM and the “SI: selectivity index for CB2” value is more than 571.
With `CCN(CC)c1ccc(CN(c2ccc(Cl)cc2)S(=O)(=O)c2cccc(C)c2)cc1` [Compound 86, N-(4-Chlorophenyl)-N-(4-(diethylamino)benzyl)-3-methylbenzenesulfonamide], the Ki was determined as 866 nM in data set [1] and 2.8 nM in data set [4] (setting [6]).
On to `CCN(CC)c1ccc(C(NC(=O)C(C)(C)C)NC(=O)C(C)(C)C)cc1` [Compound 51, N,N′-((4-(diethylamino)phenyl)methylene)bis(2,2-dimethylpropanamide)], for which the results for the Ki in data set [1] and in data set [4] (setting [6]) were more than 20000 nM and 3550 nM, respectively.
For `O=C(Cc1ccccc1)NC(CCc1ccccc1)NC(=O)Cc1ccccc1` [Compound 45, N,N′-(3-Phenylpropane-1,1-diyl)bis(2-phenylacetamide)], in that order: more than 20000 nM and 9320 nM.
`CC(C)Oc1ccc(C(NC(=O)Cc2ccccc2)NC(=O)Cc2ccccc2)cc1` [Compound 12, N,N′-((4-isopropoxyphenyl)methylene)bis(2-phenylacetamide)]: the “cell viability vs vehicle control” value in data set [3] is “not significantly affected”.
Turning to `CCN(CC)c1ccc(CN(c2ccc(C)cc2)S(=O)(=O)c2ccc(Cl)cc2)cc1` [Compound 92, 4-Chloro-N-(4-(diethylamino)benzyl)-N-(p-tolyl)benzenesulfonamide], the results for the Ki in data set [1] and in data set [4] (setting [6]) were 412 nM and 3 nM, respectively.
As to `CCN(CC)c1ccc(CN(C(=O)Cc2ccccc2)c2ccc(C)cc2)cc1` [Compound 97, N-(4-(Diethylamino)benzyl)-2-phenyl-N-(p-tolyl)acetamide], the Ki in data set [1] was more than 20000 nM; in data set [4] (setting [6]), 72 nM. The “SI: selectivity index for CB2” value in data set [4] is more than 277.
Take `CCN(CC)c1ccc(CN(C(=O)Cc2ccc(Cl)cc2)c2ccc(Cl)cc2)cc1` [Compound 88, N,2-bis(4-Chlorophenyl)-N-(4-(diethylamino)benzyl)acetamide]: the inhibitory constant (Ki) in data set [1] was more than 20000 nM; in data set [4] (setting [6]), 136 nM. Moreover, the “SI: selectivity index for CB2” value in data set [4] was found to be 147.
Turning to `CCN(CC)c1ccc(CN(C23CC4CC(CC(C4)C2)C3)S(=O)(=O)c2ccc(F)cc2)cc1` [Compound 57, N-((3s,5s,7s)-Adamantan-1-yl)-N-(4-(diethylamino)benzyl)-4-fluorobenzenesulfonamide], the Ki in data set [1] was found to be 4270 nM; in data set [4], 25 nM.
